Among the data in patent US11912703B2, “6-azaindole compounds” (BRISTOL-MYERS SQUIBB COMPANY, priority 2017, dated 2024) are IC50 values, retold here.

Assay [1] deals with human TLR9 (Homo sapiens (Human), UniProt Q9NR96). The assay is described as follows: TLR9 inhibition reporter assay (HEK-Blue SEAP).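 Further: SEAP driven by IFN-β minimal promoter carrying five NF-κB and AP-1 sites, 22 h at 37 °C, compounds 0.05 nM–50 µM, inhibition scaled between agonist-plus-DMSO and reference-inhibitor wells.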 A general note: In a reporter assay the amount or activity of a reporter protein is the signal.
Assay [2] deals with human TLR8 (Homo sapiens (Human), UniProt Q9NR97). The assay is described as follows: TLR8 inhibition reporter assay (HEK-Blue SEAP).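 Further: SEAP driven by IFN-β minimal promoter with five NF-κB and AP-1 sites, compounds tested 0.05 nM to 50 µM, 22 h incubation, inhibition relative to agonist plus DMSO wells.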
Assay [3] has as its target human TLR7 (Homo sapiens (Human), UniProt Q9NYK1). The assay is described as follows: TLR7 inhibition reporter assay (HEK-Blue SEAP). The assay is classed as cell-based. Conditions: HEK-Blue cells overexpressing human TLR7, gardiquimod 7.5 μM stimulation.
Protocol: HEK-Blue™-cells (Invivogen) overexpressing human TLR7, TLR8 or TLR9 receptors were used for screening inhibitors of these receptors using an inducible SEAP (secreted embryonic alkaline phosphatase) reporter gene under the control of the IFN-β minimal promoter fused to five NF-κB and AP-1-binding sites. Briefly, cells are seeded into Greiner 384 well plates (15000 cells per well for TLR7, 20,000 for TLR8 and 25,000 for TLR9) and then treated with test compounds in DMSO to yield a final dose response concentration range of 0.05 nM-50 μM. After a 30 minute compound pre-treatment at room temperature, the cells are then stimulated with a TLR7 ligand (gardiquimod at a final concentration of 7.5 μM), TLR8 ligand (R848 at a final concentration of 15.9 μM) or TLR9 ligand (ODN2006 at a final concentration of 5 nM) to activate NF-κB and AP-1 which induce the production of SEAP. After a 22 hour incubation at 37° C., 500 CO2, SEAP levels are determined with the addition of HEK-Blue™ Detection reagent (Invivogen), a cell culture medium that allows for detection of SEAP, according to manufacturer's specifications.
The mark [4] stands for this setting: read-out: TLR9 IC50; HEK-Blue cells overexpressing human TLR9, ODN2006 5 nM stimulation, SEAP reporter.
Where [5] appears, read: read-out: TLR8 IC50; HEK-Blue cells overexpressing human TLR8, R848 15.9 μM stimulation, SEAP reporter.
Where [6] appears, read: read-out: TLR9 IC50; HEK-Blue cells overexpressing human TLR9; ODN2006 5 nM stimulation; SEAP reporter.
[7] abbreviates: read-out: TLR8 IC50; HEK-Blue cells overexpressing human TLR8; R848 15.9 μM stimulation; SEAP reporter.

Where two headings read alike, the source gives them in different places.

Sequence of human TLR9 (Q9NR96 26-1032): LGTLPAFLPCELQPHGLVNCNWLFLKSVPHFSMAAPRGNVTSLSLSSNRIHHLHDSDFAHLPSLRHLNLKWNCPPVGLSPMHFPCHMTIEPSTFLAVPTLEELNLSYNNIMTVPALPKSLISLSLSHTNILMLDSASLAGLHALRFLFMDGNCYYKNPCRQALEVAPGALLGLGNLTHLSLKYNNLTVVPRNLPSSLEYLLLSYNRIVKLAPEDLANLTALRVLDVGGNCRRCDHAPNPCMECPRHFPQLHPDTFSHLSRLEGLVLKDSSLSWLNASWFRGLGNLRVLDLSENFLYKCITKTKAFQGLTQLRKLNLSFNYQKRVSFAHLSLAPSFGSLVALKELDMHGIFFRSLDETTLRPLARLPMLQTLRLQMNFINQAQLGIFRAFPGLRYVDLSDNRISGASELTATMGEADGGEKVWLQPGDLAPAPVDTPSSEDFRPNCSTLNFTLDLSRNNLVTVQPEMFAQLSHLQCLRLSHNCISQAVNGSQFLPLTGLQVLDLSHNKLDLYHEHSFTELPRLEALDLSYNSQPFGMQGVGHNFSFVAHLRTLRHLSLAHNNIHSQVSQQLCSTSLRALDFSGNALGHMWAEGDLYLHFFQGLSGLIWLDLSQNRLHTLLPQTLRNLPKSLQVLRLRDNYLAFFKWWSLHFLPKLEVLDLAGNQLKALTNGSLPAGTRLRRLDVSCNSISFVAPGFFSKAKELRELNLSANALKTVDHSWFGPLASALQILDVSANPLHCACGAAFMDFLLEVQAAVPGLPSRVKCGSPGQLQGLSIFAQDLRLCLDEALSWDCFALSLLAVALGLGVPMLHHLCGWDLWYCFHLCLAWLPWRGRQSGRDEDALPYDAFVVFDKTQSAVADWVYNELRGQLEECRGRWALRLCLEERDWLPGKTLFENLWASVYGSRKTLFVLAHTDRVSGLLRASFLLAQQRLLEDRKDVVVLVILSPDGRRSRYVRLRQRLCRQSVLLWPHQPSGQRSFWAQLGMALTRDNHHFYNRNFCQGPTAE
Sequence of human TLR8 (Q9NR97 27-1041): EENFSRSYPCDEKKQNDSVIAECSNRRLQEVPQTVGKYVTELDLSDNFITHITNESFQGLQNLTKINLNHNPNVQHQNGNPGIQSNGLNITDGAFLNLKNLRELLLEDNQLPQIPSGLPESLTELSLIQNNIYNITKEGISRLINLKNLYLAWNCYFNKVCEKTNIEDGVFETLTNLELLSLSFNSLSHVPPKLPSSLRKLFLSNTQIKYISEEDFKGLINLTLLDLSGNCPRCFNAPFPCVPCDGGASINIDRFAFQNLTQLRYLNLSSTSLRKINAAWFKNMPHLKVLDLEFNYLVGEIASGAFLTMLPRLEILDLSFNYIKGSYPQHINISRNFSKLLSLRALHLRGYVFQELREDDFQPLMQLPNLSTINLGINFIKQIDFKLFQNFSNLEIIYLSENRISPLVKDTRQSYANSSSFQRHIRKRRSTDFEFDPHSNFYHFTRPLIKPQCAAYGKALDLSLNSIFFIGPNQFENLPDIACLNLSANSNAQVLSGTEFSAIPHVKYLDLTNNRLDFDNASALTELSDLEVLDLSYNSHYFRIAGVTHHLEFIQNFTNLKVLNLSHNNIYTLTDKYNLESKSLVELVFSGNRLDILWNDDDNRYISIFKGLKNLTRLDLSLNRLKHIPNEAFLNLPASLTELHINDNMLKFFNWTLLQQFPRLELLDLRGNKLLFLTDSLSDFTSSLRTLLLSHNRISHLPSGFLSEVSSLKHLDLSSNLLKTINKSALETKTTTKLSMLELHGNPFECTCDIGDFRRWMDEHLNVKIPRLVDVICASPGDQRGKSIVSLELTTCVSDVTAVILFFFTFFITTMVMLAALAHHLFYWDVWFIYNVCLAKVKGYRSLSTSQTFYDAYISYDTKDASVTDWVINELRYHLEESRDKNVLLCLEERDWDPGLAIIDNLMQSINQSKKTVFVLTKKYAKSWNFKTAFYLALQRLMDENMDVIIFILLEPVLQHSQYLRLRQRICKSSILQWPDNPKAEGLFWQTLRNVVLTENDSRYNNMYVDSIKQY
Sequence of human TLR7 (Q9NYK1 27-1049): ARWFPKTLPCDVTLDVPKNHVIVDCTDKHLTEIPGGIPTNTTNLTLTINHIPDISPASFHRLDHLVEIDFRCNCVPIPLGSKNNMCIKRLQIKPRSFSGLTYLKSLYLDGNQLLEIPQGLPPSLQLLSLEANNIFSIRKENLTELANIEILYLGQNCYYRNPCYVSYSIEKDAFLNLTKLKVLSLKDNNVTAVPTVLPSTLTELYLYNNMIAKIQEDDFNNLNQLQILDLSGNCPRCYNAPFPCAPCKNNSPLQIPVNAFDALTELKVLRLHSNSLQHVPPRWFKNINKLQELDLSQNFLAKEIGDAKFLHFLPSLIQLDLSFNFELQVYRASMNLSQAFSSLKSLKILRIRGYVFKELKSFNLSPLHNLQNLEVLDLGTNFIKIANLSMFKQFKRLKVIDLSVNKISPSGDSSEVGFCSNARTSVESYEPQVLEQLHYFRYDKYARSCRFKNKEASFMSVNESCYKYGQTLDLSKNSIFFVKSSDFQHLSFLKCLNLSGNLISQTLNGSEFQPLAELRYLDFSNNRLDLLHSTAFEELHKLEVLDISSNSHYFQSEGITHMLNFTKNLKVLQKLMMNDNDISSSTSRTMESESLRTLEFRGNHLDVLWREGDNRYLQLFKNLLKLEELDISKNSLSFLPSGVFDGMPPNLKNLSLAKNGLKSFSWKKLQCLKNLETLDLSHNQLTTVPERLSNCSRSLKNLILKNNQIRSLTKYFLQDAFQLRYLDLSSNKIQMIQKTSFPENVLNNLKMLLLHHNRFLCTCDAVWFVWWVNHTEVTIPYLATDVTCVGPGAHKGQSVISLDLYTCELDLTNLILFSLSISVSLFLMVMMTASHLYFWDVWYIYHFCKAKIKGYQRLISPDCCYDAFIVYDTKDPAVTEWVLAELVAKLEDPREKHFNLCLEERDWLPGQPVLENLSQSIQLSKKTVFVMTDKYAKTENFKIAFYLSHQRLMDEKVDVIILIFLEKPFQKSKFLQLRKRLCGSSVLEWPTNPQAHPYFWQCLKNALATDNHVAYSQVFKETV

Turning to `CNC(=O)CN1CCN(c2ncc3[nH]c(-c4cc(OC)c5ncnn5c4)c(C(C)C)c3c2Cl)CC1` [Example 293], the IC50 is 29100 nM in assay [1] (setting [4]), 4.7 nM in assay [2] (setting [5]) and 3.1 nM in assay [3].
In the case of `CNCC(=O)NC1CCN(c2cc3c(C(C)C)c(-c4cc(OC)c5ncnn5c4)[nH]c3cn2)CC1` [Example 339], the half-inhibitory concentration (IC50) in assay [1] (setting [4]) is 677 nM; in assay [2] (setting [5]) it was 28 nM; in assay [3], 12 nM.
The like results for `COc1cc(-c2[nH]c3cnc(C4CCN(CC(N)=O)CC4)c(F)c3c2C(C)C)cn2ncnc12` [Example 19] were, in that order, 1760 nM, 3 nM and 2 nM.
For `COc1cc(-c2[nH]c3cnc(C4CCN(CC(=O)N(C)C)CC4)cc3c2C(C)C)cn2ncnc12` [Example 298], in that order: 459 nM, 75 nM and 14 nM.
In the case of `Cc1c(-c2[nH]c3cnc(N4CCN(C(=O)CN5CCOCC5)C[C@H]4C)c(F)c3c2C(C)C)cn2ncnc2c1C` [Example 471], the IC50 in assay [1] (setting [6]) was above 50000 nM; in assay [2] (setting [7]), 2.7 nM; in assay [3], 27 nM.
For `Cc1cc(-c2[nH]c3cnc(C4CCC(N5CCC5)CC4)c(F)c3c2C(C)C)cn2ncnc12` (stereo not drawn) [Example 262], the half-inhibitory concentration (IC50) amounted to 1330 nM in assay [1] (setting [4]), 4.2 nM in assay [2] (setting [5]) and 1.3 nM in assay [3].
For `CNC(=O)CN1CCN(c2ncc3[nH]c(-c4cn5ncnc5c(C)c4C)c(C(C)C)c3c2C)CC1` [Example 413], in that order: above 50000 nM, 6.1 nM and 29 nM.
The like results for `COc1cc(-c2[nH]c3cnc(N4CCN(CC#N)CC4)c(F)c3c2C(C)C)cn2ncnc12` [Example 365] were, in that order, 1490 nM, 0.51 nM and 0.42 nM.
For `Cc1c(-c2[nH]c3cnc(N4CCN(C5COC5)CC4)c(F)c3c2C(C)C)cn2ncnc2c1C` [Example 409], in that order: above 50000 nM, 3.4 nM and 2.5 nM.
For `COc1cc(-c2[nH]c3cnc(C4CCN(CC(=O)N(C)C)CC4)c(F)c3c2C(C)C)cn2ncnc12` [Example 34], the IC50 was 1510 nM in assay [1] (setting [4]), 2 nM in assay [2] (setting [5]) and 2.5 nM in assay [3].
In the case of `Cc1cc(-c2[nH]c3cnc(N4CCC(NC5CCOCC5)CC4)c(F)c3c2C(C)C)cn2ncnc12` [Example 220], the IC50 in assay [1] (setting [6]) worked out at 4540 nM; in assay [2] (setting [7]), 0.35 nM; in assay [3] it was 0.74 nM.
Consider `COc1cc(-c2[nH]c3cnc(N4CCN(C5COC5)CC4)c(F)c3c2C(C)C)cn2ncnc12` [Example 382], for which the IC50 was above 50000 nM in assay [1] (setting [4]), 18 nM in assay [2] (setting [5]) and 4.5 nM in assay [3].
The like results for `Cc1c(-c2[nH]c3cnc(C4CCN(C(=O)CN(C)C)CC4)c(F)c3c2C(C)C)cn2ncnc2c1C` [Example 29] were, in that order, 1700 nM, 4.7 nM and 4.3 nM.
For `Cc1c(-c2[nH]c3cnc(C4CCC(NCC(F)F)CC4)cc3c2C(C)C)cn2ncnc2c1C` (stereo not drawn) [Example 336], in that order: 4000 nM, 36 nM and 8.8 nM.
The like results for `CNC(=O)CN1CCN(c2ncc3[nH]c(-c4cc(OC)c5ncnn5c4)c(C(C)C)c3c2F)CC1` [Example 359] were, in that order, above 50000 nM, 2.7 nM and 2.5 nM.
Regarding `COc1cc(-c2[nH]c3cnc(C4CCC(NC5CCOC5)CC4)cc3c2C(C)C)cn2ncnc12` (stereo not drawn) [Example 317], the IC50 came out at 34 nM in assay [1] (setting [4]), 7.1 nM in assay [2] (setting [5]) and 2.1 nM in assay [3].
For `COc1cc(-c2[nH]c3cnc(C4CCC(NCC5(C)COC5)CC4)c(F)c3c2C(C)C)cn2ncnc12` (stereo not drawn) [Example 193], in that order: 1250 nM, 0.4 nM and 0.84 nM.
For `COc1cc(-c2[nH]c3cnc(N4CCC(NC5COC5)CC4)c(C)c3c2C(C)C)cn2ncnc12` [Example 137], in that order: 3160 nM, 0.9 nM and 0.63 nM.
For `COc1cc(-c2[nH]c3cnc(N4CCNCC4)c(F)c3c2C(C)C)cn2ncnc12` [Example 353, 6-(4-fluoro-3-isopropyl-5-(piperazin-1-yl)-1H-pyrrolo[2,3-c]pyridin-2-yl)-8-methoxy-[1,2,4]triazolo[1,5-a]pyridine], in that order: 2530 nM, 1.4 nM and 0.61 nM.
For `Cc1cc(-c2[nH]c3cnc(C4CCC(NC(C)C)CC4)c(F)c3c2C(C)C)cn2ncnc12` (stereo not drawn) [Example 198], the IC50 in assay [1] (setting [4]) came out at 1150 nM; in assay [2] (setting [5]), 2.6 nM; in assay [3], 2.4 nM.
Turning to `COc1cc(-c2[nH]c3cnc(N4CCC(N5CC6(COC6)C5)CC4)c(F)c3c2C(C)C)cn2ncnc12` [Example 254], the IC50 was 3010 nM in assay [1] (setting [4]), 0.55 nM in assay [2] (setting [5]) and 1.5 nM in assay [3].
Consider `CCN(C)C1CCC(c2cc3c(C(C)C)c(-c4cc(OC)c5ncnn5c4)[nH]c3cn2)C1` (stereo not drawn) [Example 249], for which the concentration for half-maximal inhibition (IC50) in assay [1] (setting [4]) stood at 1450 nM; in assay [2] (setting [5]), 12 nM; in assay [3] it was 12 nM.
Regarding `Cc1cc(-c2[nH]c3cnc(C4CCC(N(C)C(C)C)CC4)c(F)c3c2C(C)C)cn2ncnc12` (stereo not drawn) [Example 261], the IC50 in assay [1] (setting [4]) was 1270 nM; in assay [2] (setting [5]), 1.1 nM; in assay [3], 0.61 nM.
The like results for `CCN(C)C1CCN(c2ncc3[nH]c(-c4cc(OC)c5ncnn5c4)c(C(C)C)c3c2C)CC1` [Example 138] were, in that order, 1900 nM, 0.49 nM and 0.26 nM.
As to `CNCC(=O)N1CCC(c2ncc3[nH]c(-c4cc(C)c5ncnn5c4)c(C(C)C)c3c2F)CC1` [Example 39], the IC50 in assay [1] (setting [4]) amounted to 5530 nM; in assay [2] (setting [5]), 16 nM; in assay [3], 6.4 nM.
Take `CNCC(=O)N1CCN(c2ncc3[nH]c(-c4cc(OC)c5ncnn5c4)c(C(C)C)c3c2C)CC1` [Example 98]: the half-inhibitory concentration (IC50) was 1200 nM in assay [1] (setting [4]), 14 nM in assay [2] (setting [5]) and 4.7 nM in assay [3].
The like results for `COc1cc(-c2[nH]c3cnc(C4CCC(NCC(C)(C)OC)C4)cc3c2C(C)C)cn2ncnc12` (stereo not drawn) [Example 179] were, in that order, 486 nM, 7 nM and 20 nM.
Turning to `Cc1c(-c2[nH]c3cnc(N4CCN(C5CCN(C(C)C)CC5)C[C@H]4C)c(F)c3c2C(C)C)cn2ncnc2c1C` [Example 462], the IC50 in assay [1] (setting [6]) came to 1970 nM; in assay [2] (setting [7]), 1.5 nM; in assay [3], 1.1 nM.
Regarding `Cc1cc(-c2[nH]c3cnc(C4CCC(N5CC6(COC6)C5)CC4)c(F)c3c2C(C)C)cn2ncnc12` (stereo not drawn) [Example 132], the half-maximal inhibitory concentration (IC50) is 2130 nM in assay [1] (setting [4]), 5 nM in assay [2] (setting [5]) and 3.4 nM in assay [3].
The like results for `CCN(CCC#N)C1CCN(c2ncc3[nH]c(-c4cc(C)c5ncnn5c4)c(C(C)C)c3c2C)CC1` [Example 286] were, in that order, 2860 nM, 2.2 nM and 2.2 nM.
As for `CC(=O)N1CCN(c2ncc3[nH]c(-c4cn5ncnc5c(C)c4C)c(C(C)C)c3c2F)CC1` [Example 427], the values for the IC50 in assay [1] (setting [4]), in assay [2] (setting [5]) and in assay [3] were above 50000 nM, 37 nM and 35 nM, respectively.

As a reminder, the IC50 is the point on the concentration scale where inhibition reaches its midpoint.
